In paper PMC11643024 (bioRxiv, 2024):

System: H1975-OR xenografts
Experiment: H1975-OR xenograft tumor growth
Format: in vivo, mice
Settings: osimertinib p.o. 5 mg/kg daily, NGI-189 i.p. 10 mg/kg every other day

C=CC(=O)Nc1cc(Nc2nccc(-c3cn(C)c4ccccc34)n2)c(OC)cc1N(C)CCN(C)C [osimertinib]
tumor response: did not respond
